The results in this text go back to patent US12441725B2, “ISO-citrate dehydrogenase (IDH) inhibitor” (ZHEJIANG METON PHARMACEUTICAL CO., LTD, priority 2019, dated 2025).

By IC50 is commonly meant the point on the concentration scale where inhibition reaches its midpoint.

In test [1] the target is T1, IDH1 R132H (Homo sapiens, UniProt O75874, R132H).
T1 construct: 6xHis
The experiment in a line: Biochemical assay for IDH inhibition (NADPH fluorescence), mutant IDH1 R132H. The note with it: 50 nM IDH1-R132H, 1 hour pre-incubation, in triplet. An outline of the steps:
(§1)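 The read-out was the linear-phase loss of NADPH fluorescence (340/460 nm) over 15 min, background-subtracted and normalized to DMSO wells, giving triplicate IC50 values. Beforehand, R132H (50 nM) or R132C (25 nM) was exposed to compound for 1 h at room temperature with 1.33 mM α-KG at pH 7.5, and the reaction was triggered by adding an 80 μM NADPH solution.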

Test [2] addresses T2, IDH1 R132C (Homo sapiens, UniProt O75874, R132C).
T2 construct: 6xHis
Briefly: Biochemical assay for IDH inhibition (NADPH fluorescence), mutant IDH1 R132C. The note with it: 25 nM IDH1-R132C, 1 hour pre-incubation, in triplet. An outline of the steps: as §1

Test [3] deals with T3, IDH (endogenous IDH1 R132C) in HT1080 cell (Homo sapiens, UniProt O75874, R132C).
T3 construct: which harbor endogenous heterozygous IDH1 R132C and R132H mutation respectively and accumulate D-2-HG
T3 sequence (O75874 2-414 R132C): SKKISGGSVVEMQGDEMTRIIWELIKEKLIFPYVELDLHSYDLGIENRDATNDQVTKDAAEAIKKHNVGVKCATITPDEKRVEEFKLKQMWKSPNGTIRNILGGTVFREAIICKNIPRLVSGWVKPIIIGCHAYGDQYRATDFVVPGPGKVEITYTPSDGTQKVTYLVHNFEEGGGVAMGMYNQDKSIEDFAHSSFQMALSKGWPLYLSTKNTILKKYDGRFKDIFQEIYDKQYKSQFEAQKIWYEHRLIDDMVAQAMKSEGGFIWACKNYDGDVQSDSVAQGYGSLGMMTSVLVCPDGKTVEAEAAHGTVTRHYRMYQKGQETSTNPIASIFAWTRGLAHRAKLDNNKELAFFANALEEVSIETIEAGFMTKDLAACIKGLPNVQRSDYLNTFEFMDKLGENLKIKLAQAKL
The experiment in a line: Cell-based assay for IDH inhibition (decrease of D-2-HG) in HT1080 cells. The note with it: human fibrosarcoma cell line HT1080, 16 hours treatment, D-2-HG by LC-MS, in triplet. The gist of the method: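 LC-MS/MS quantification of D-2-HG, normalized to glutamate, follows a 16 h compound exposure of IDH1 R132C HT1080 cells in DMEM with 10% FBS. Extraction uses pre-chilled 40% methanol/40% acetonitrile in water. Triplicate determinations; IC50 from D-2-HG levels relative to DMSO-treated cells.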

Each structure is given as a SMILES string. Some results are limits rather than exact numbers.

T1 sequence (O75874 whole entry R132H): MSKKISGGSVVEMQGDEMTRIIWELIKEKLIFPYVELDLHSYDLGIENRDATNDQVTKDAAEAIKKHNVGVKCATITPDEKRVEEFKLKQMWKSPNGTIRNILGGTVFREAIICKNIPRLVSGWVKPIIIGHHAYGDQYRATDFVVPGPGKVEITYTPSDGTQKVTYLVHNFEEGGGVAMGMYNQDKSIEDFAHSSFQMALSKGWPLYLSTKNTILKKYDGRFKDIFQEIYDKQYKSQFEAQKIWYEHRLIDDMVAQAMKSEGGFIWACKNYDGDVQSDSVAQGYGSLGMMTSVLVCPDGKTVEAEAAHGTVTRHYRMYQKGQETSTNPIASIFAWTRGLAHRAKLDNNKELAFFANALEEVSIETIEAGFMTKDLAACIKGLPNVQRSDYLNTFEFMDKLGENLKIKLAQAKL
T2 sequence (O75874 whole entry R132C): as the sequence (O75874 whole entry R132H) above, with H132C counted along it

`CCN1Cc2c(ccnc2N[C@@H](C)c2cc(F)c(-c3cc(C(F)(F)F)cc(Cl)n3)cc2F)C1=O` [Compound 121, (S)-4-((1-(4-(6-chloro-4-(trifluoromethyl)pyridin-2-yl)-2,5-difluorophenyl)ethyl)amino)-2-ethyl-2,3-dihydro-1H-pyrrolo[3,4-c]pyridin-1-one]: the figures for the half-inhibitory concentration (IC50) in test [1], in test [2] and in test [3] were less than 100 nM, 100 to 500 nM and 500 to 1000 nM, respectively.
For `CCN1Cc2c(ccnc2N[C@@H](C)c2cc(F)c(-c3cc(C(F)(F)F)cc(C)n3)cc2F)C1=O` [Compound 122, (S)-4-((1-(2,5-difluoro-4-(6-methyl-4-(trifluoromethyl)pyridin-2-yl)phenyl)ethyl)amino)-2-ethyl-2,3-dihydro-1H-pyrrolo[3,4-c]pyridin-1-one], the IC50 in test [1] is less than 100 nM; in test [2], less than 100 nM; in test [3], 100 to 500 nM.
Regarding `CCN1Cc2c(ccnc2N[C@@H](C)c2cc(F)c(-c3cc(C(F)(F)F)cc(CF)n3)cc2F)C1=O` [Compound 123, (S)-4-((1-(2,5-difluoro-4-(6-(fluoromethyl)-4-(trifluoromethyl)pyridin-2-yl)phenyl)ethyl)amino)-2-ethyl-2,3-dihydro-1H-pyrrolo[3,4-c]pyridin-1-one], the IC50 was less than 100 nM in test [1], less than 100 nM in test [2] and 100 to 500 nM in test [3].
Consider `CCN1Cc2c(ccnc2N[C@@H](C)c2cc(F)c(-c3cc(C4(C(F)(F)F)CC4)ccn3)cc2F)C1=O` [Compound 124, (S)-4-((1-(2,5-difluoro-4-(4-(1-(trifluoromethyl)cyclopropyl)pyridin-2-yl)phenyl)ethyl)amino)-2-ethyl-2,3-dihydro-1H-pyrrolo[3,4-c]pyridin-1-one], for which the IC50 in test [1], in test [2] and in test [3] was less than 100 nM in each case.
Take `C/C=C(\c1ccnc(-c2cc(F)c([C@H](C)Nc3nccc4c3CN(CC)C4=O)cc2F)c1)C(F)(F)F` [Compound 125, (S,E)-4-((1-(2,5-difluoro-4-(4-(1,1,1-trifluorobut-2-en-2-yl)pyridin-2-yl)phenyl)ethyl)amino)-2-ethyl-2,3-dihydro-1H-pyrrolo[3,4-c]pyridin-1-one]: the 50% inhibitory concentration (IC50) in test [1], in test [2] and in test [3] was less than 100 nM in each case.
For the compound `CCN1Cc2c(ccnc2N[C@@H](C)c2cc(F)c(-c3cc(C4(C(F)(F)F)CC=NN4)ccn3)cc2F)C1=O` (stereo partly drawn) [Compound 126, 4-(((1S)-1-(2,5-difluoro-4-(4-(5-(trifluoromethyl)-4,5-dihydro-1H-pyrazol-5-yl)pyridin-2-yl)phenyl)ethyl)amino)-2-ethyl-2,3-dihydro-1H-pyrrolo[3,4-c]pyridin-1-one], the results for the IC50 in test [1], in test [2] and in test [3] were less than 100 nM, 100 to 500 nM and 100 to 500 nM, respectively.
Take `CCN1Cc2c(ccnc2N[C@@H](C)c2cc(F)c(-c3cc(C(C)(C)F)c(C)cn3)cc2F)C1=O` [Compound 127, (S)-4-((1-(2,5-difluoro-4-(4-(2-fluoropropan-2-yl)-5-methylpyridin-2-yl)phenyl)ethyl)amino)-2-ethyl-2,3-dihydro-1H-pyrrolo[3,4-c]pyridin-1-one]: the IC50 in test [1], in test [2] and in test [3] was less than 100 nM each time.
For `CCN1Cc2c(ccnc2N[C@@H](C)c2cc(F)c(-c3cc(NC(C)(C)C)cc(C)n3)cc2F)C1=O` [Compound 128, (S)-4-((1-(4-(4-(tert-butylamino)-6-methylpyridin-2-yl)-2,5-difluorophenyl)ethyl)amino)-2-ethyl-2,3-dihydro-1H-pyrrolo[3,4-c]pyridin-1-one], the IC50 in test [1] is less than 100 nM; in test [2], 100 to 500 nM; in test [3], 100 to 500 nM.
Consider `CCN1Cc2c(ccnc2N[C@@H](C)c2cc(F)c(-c3cc(OC(C)(C)C)cc(C)n3)cc2F)C1=O` [Compound 129, (S)-4-((1-(4-(4-(tert-butoxy)-6-methylpyridin-2-yl)-2,5-difluorophenyl)ethyl)amino)-2-ethyl-2,3-dihydro-1H-pyrrolo[3,4-c]pyridin-1-one], for which the IC50 in test [1], in test [2] and in test [3] was less than 100 nM in each case.
